Assay results reported in US20240398737A1, “FUNCTIONALIZED LONG-CHAIN HYDROCARBON MONO- AND DI-CARBOXYLIC ACIDS AND DERIVATIVES THEREOF, AND THEIR USE FOR THE PREVENTION OR TREATMENT OF DISEASE” (Espervita Therapeutics, Inc., priority 2021, published 2024).

Columns and labels:
RIPK4 = RIPK4 (Homo sapiens (Human), UniProt P57078); assay: Wild type kinase screen: RIPK4; type: biochemical; settings: compound at 10 μM, 10 μM ATP, Data 1 and Data 2 duplicates
c-Kit = c-Kit (Homo sapiens (Human), UniProt P10721); assay: Wild type kinase screen: c-Kit; type: biochemical; settings: compound at 10 μM, 10 μM ATP, Data 1 and Data 2 duplicates
Sequence of c-Kit (P10721 26-976): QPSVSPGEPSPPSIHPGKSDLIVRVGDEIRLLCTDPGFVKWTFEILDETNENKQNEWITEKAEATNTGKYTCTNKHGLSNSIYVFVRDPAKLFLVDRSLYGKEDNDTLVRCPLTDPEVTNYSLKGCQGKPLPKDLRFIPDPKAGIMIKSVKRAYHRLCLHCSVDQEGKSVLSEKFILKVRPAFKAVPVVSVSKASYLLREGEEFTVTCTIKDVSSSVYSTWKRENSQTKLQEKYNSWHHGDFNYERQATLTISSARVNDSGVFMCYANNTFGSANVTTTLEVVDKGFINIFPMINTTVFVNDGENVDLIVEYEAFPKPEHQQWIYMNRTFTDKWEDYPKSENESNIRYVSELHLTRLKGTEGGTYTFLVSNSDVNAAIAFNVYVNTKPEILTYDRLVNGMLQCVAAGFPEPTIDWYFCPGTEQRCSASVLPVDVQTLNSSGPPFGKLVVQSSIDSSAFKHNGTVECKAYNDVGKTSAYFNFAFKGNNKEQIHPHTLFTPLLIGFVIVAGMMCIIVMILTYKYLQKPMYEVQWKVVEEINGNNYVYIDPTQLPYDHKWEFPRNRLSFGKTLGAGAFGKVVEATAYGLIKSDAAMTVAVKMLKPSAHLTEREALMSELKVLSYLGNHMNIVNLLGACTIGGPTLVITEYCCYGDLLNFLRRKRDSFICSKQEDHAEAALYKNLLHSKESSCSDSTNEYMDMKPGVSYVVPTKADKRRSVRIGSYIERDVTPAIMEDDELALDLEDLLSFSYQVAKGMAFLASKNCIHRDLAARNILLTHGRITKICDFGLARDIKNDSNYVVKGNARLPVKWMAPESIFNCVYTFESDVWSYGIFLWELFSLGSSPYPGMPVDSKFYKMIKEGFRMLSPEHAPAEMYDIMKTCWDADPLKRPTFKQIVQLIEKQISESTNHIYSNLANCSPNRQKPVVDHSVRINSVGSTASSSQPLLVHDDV

GSK3b = GSK3b (Homo sapiens (Human), UniProt P49841); assay: Wild type kinase screen: GSK3b; type: biochemical; settings: compound at 10 μM, 10 μM ATP, Data 1 and Data 2 duplicates
Sequence of GSK3b (P49841 whole entry, species assumed): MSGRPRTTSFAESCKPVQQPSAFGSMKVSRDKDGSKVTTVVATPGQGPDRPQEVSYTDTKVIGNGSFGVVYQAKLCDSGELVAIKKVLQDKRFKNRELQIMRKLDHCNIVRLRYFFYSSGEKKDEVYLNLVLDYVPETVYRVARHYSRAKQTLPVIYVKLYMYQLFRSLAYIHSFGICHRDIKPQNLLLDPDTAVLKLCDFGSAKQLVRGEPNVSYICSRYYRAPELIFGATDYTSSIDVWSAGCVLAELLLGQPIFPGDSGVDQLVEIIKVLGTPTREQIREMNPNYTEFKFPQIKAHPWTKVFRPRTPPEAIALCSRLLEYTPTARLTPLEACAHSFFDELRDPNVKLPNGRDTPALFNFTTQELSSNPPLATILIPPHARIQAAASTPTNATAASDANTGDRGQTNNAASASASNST

C57BL6/J mice = assay: Indirect calorimetry (CLAMS) in fructose-fed C57BL6/J mice; type: in vivo, mouse; settings: 100 mg/kg oral gavage
Description: Materials and Methods. All experiments were carried out using the methods approved by the Animal Research Ethics Board at McMaster University, Canada (Steinberg Laboratory Animal Utilization Protocol #16-12-42). 8-Week-old male C57BL6/J mice were ordered from Jackson Laboratory, Bar Harbor, Maine and housed at the McMaster University Central Animal Facility. Animals were housed in the ventilated cages racks system and provided with ad libitum access to normal chow diet (Teklad 8640 22/5 rodent diet, procured from Envigo, Mississauga ON) and water supplemented with fructose (30% weight/volume, made fresh weekly) for at least 2-weeks before testing commenced. A 12-hour light/dark cycle and a temperature of 23±2° C. were maintained throughout the animal housing. Data were analyzed using one-way analyses of variance followed by a Tukey's multiple comparisons post hoc test where appropriate. All statistical analysis was carried out using GraphPad Prism 8 software. A p-value of less than or equal 0.05 was considered significant.
Experimental and Results. Respiratory Exchange Ratio (RER) and related metabolic parameters were measured using the Comprehensive Lab Animal Monitoring System (CLAMS, Columbus Instruments, Columbus, Ohio). Animals were placed in CLAMS and allowed ad libitum access to normal chow diet and water supplemented with fructose (30% weight/volume) for at least 24 hours before the experiment began. At 5:30 p.m. chow diet was removed and water containing 30% fructose was replaced with normal tap water. Animals were fasted overnight until food and 30% fructose water were made accessible the next day at 7:30 a.m. (14 hours total). Animals were allowed to feed ad libitum for ˜2 hours. RER was monitored and those animals with RER values >1 were administered either vehicle (1.5% Carboxymethyl cellulose and 0.2% Tween 20) alone or vehicle containing Compound I-1 or Compound I-32 at a dose of 100 mg/kg via oral gavage. Animals remained in the metabolic cages and RER, activity level, locomotor activity, and food intake were monitored for 24 hours. Metabolic parameters were calculated using Oxymax software included with Comprehensive Lab Animal Monitoring System (CLAMS). RER was calculated as the […] given by the following equation: […]
Locomotor activity was calculated as the total number of beam breaks in each cage over a 24-hour period. The heat (calorific value, CV) was calculated by the following equation: […]

MAPKAPK2 = MAPKAPK2 (Homo sapiens (Human), UniProt P49137); assay: Wild type kinase screen: MAPKAPK2; type: biochemical; settings: compound at 10 μM, 10 μM ATP, Data 1 and Data 2 duplicates
Sequence of MAPKAPK2 (P49137 whole entry, species assumed): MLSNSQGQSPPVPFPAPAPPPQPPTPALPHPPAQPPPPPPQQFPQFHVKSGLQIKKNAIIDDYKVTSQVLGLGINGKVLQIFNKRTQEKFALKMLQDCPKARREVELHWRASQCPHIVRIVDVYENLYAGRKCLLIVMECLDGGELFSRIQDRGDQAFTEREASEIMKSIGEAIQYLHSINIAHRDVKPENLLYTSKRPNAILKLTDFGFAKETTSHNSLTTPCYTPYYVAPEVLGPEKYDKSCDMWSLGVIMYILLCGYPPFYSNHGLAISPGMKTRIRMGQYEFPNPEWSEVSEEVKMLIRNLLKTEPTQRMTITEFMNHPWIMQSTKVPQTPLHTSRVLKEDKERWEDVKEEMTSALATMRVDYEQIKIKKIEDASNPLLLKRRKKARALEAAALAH

Aurora A = Aurora A (Homo sapiens (Human), UniProt O14965); assay: Wild type kinase screen: Aurora A; type: biochemical; settings: compound at 10 μM, 10 μM ATP, Data 1 and Data 2 duplicates
Sequence of Aurora A (O14965 whole entry): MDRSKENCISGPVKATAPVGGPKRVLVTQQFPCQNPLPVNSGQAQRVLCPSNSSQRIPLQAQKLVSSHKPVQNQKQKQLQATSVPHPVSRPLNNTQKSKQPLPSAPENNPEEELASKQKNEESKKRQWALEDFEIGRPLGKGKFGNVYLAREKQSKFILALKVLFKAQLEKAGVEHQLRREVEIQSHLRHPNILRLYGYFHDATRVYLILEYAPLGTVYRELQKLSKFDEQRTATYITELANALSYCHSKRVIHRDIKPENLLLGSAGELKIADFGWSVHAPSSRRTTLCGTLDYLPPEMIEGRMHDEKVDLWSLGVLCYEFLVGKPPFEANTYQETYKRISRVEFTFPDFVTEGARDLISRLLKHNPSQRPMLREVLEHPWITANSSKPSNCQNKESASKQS

LIMK1 = LIMK1 (Homo sapiens (Human), UniProt P53667); assay: Wild type kinase screen: LIMK1; type: biochemical; settings: compound at 10 μM, 10 μM ATP, Data 1 and Data 2 duplicates
Sequence of LIMK1 (P53667 whole entry, species assumed): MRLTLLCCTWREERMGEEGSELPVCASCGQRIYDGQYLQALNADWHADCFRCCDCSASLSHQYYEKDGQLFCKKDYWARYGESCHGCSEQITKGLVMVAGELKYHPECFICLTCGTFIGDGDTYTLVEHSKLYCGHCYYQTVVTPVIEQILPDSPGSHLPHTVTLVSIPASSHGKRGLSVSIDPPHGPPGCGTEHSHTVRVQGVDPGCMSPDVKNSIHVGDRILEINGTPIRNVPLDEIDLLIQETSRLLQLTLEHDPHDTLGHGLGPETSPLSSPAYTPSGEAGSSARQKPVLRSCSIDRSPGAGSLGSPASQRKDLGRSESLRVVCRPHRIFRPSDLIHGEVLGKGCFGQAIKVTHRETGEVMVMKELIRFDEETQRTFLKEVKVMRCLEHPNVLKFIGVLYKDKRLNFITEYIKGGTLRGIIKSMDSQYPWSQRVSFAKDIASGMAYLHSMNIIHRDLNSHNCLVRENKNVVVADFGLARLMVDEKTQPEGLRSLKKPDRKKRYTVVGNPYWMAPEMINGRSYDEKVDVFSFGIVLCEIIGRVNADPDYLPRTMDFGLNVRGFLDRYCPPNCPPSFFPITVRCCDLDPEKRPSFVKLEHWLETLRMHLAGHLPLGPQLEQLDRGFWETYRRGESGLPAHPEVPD

FLT1/VEGFR1 = FLT1/VEGFR1 (Homo sapiens (Human), UniProt P17948); assay: Wild type kinase screen: FLT1/VEGFR1; type: biochemical; settings: compound at 10 μM, 10 μM ATP, Data 1 and Data 2 duplicates
Sequence of FLT1/VEGFR1 (P17948 27-1338): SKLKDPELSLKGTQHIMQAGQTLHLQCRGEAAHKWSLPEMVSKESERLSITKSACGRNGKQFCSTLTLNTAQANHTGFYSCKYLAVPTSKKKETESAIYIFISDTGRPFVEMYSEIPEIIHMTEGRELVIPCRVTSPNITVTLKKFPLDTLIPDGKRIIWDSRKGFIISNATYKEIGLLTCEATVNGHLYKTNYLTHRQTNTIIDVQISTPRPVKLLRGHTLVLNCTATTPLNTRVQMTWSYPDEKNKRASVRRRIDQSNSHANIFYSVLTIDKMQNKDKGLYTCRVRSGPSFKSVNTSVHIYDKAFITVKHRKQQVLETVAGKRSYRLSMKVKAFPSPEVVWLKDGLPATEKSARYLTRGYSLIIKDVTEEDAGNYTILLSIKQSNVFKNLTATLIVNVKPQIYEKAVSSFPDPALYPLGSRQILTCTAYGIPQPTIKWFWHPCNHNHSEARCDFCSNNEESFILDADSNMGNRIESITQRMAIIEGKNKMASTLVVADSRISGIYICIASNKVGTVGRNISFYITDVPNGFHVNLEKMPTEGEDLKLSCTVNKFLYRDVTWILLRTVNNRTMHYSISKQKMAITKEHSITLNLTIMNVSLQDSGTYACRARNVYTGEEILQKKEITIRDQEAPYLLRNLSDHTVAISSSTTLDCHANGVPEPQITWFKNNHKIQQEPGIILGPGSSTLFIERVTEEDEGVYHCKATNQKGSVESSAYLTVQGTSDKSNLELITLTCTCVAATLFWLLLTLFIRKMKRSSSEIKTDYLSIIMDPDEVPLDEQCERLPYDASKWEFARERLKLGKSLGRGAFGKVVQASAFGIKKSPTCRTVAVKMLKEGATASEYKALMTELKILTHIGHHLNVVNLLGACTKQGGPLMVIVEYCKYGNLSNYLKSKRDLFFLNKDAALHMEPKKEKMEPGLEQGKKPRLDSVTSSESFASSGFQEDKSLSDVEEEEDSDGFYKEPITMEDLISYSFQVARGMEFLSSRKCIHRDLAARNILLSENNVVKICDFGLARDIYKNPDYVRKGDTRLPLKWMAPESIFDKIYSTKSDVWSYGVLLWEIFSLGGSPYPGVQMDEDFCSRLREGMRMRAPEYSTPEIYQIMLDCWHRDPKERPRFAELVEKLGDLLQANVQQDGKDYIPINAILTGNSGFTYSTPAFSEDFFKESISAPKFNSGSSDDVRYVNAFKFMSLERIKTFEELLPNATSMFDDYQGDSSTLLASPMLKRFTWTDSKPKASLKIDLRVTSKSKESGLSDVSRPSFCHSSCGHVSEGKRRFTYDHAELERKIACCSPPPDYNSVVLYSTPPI

[1] = Synthesis of CoA derivatives in rat liver microsomes (LCMS detection); type: in vitro ADME; settings: 1 mM substrate, 30 min sample
Description: Reaction products were eluted using the gradient shown below: […]
Formation and detection of the Co-A derivatives of Compounds 1-32, 1-61, I-1 or III-1 in rat liver microsomes: 1 mM of each compound (Compounds I-32, I-61, I-1 or III-1) or palmitic acid (control) were used as substrate in the rat microsomal preparation for 0 and 30 min and extracted as described above. […] Further confirmation was obtained by exposing the compound to a collision energy causing the characteristic neutral loss of 3′-phosphonucleoside diphosphate (507 Da) producing the fragment ion 499.3 m/z. There was no evidence of the CoA derivative in the time 0 min sample.

Sequence of RIPK4 (P57078 whole entry, species assumed): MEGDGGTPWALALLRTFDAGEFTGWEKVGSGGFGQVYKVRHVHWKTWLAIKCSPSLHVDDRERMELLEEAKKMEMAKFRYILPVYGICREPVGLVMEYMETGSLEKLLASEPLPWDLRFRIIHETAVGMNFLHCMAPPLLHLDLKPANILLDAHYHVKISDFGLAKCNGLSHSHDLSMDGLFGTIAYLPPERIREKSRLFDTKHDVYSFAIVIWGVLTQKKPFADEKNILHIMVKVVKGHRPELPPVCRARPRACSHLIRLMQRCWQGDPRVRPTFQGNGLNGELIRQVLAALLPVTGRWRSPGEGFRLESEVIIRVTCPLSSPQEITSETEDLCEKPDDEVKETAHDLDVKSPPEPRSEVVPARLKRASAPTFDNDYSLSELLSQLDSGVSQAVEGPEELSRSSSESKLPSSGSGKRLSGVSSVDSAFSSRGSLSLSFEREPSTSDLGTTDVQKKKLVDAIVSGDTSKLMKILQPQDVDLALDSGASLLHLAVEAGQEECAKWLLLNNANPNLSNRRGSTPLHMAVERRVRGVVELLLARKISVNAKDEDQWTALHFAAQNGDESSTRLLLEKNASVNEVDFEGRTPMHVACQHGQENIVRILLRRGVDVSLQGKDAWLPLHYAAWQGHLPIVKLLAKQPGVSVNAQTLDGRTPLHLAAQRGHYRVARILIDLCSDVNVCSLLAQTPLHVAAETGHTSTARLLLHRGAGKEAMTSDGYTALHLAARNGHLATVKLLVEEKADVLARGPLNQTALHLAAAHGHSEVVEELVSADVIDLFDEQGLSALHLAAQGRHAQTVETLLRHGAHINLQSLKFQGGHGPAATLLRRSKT

Row | Structure (SMILES) | % Enzyme Activity (relative to DMSO controls) (RIPK4) [%] | % Enzyme Activity (relative to DMSO controls) (c-Kit) [%] | % Enzyme Activity (relative to DMSO controls) (GSK3b) [%] | Duration of the RER reduction (C57BL6/J mice) [h] | Respiratory exchange ratio (RER) compared to vehicle treated group (C57BL6/J mice) | Time to detection of the RER reduction after treatment (C57BL6/J mice) [h] | % Enzyme Activity (relative to DMSO controls) (MAPKAPK2) [%] | % Enzyme Activity (relative to DMSO controls) (Aurora A) [%] | % Enzyme Activity (relative to DMSO controls) (LIMK1) [%] | % Enzyme Activity (relative to DMSO controls) (FLT1/VEGFR1) [%] | Formation of the CoA derivative (LCMS detection, fragmentation confirmation) [1]
1 | CC(C)(CCCCc1ccc(CCCCC(C)(C)C(=O)O)cc1)C(=O)O [Compound I-1, 6-[4-(5-carboxy-5-methylhexyl)-phenyl]-2,2-dimethylhexanoic acid] | 42.78 | 81.06 | 82.73 | 6 | significant reduction | ≤ 1 | 92.75 | 83.92 | 71.9 | 87.88 | detected
2 | CC(C)(CCCCc1cccc(CCCCC(C)(C)C(=O)O)c1)C(=O)O [Compound I-32, 6-[3-(5-carboxy-5-methylhexyl)-phenyl]-2,2-dimethylhexanoic acid] | 42.74 | 71.52 | 72.67 | 6 | significant reduction | ≤ 1 | 90.61 | 93.33 | 71.71 | 91.15 | detected
